target: T1, rat histamine H3 receptors (Rattus norvegicus, UniProt Q9QYN8); experiment: Rat H3 Binding (3H-N-methylhistamine displacement, frontal brain membranes); conditions: frozen rat frontal brain membranes; radioligand 1 nM 3H-N-methylhistamine; 1 hour incubation
T1 construct: Frozen rat frontal brain or frozen human post-mortem frontal brain is homogenized; from tissue; host or cells: rat frontal brain membranes
Experimental: The in vitro affinity of the compounds in the present invention at the rat or human histamine H3 receptors can be determined according to the following procedure. Frozen rat frontal brain or frozen human post-mortem frontal brain is homogenized in 20 volumes of cold 50 mM Tris HCl containing 2 mM MgCl2 (pH to 7.4 at 4 degrees C.). The homogenate is then centrifuged at 45,000 G for 10 minutes. The supernatant is decanted and the membrane pellet re-suspended by Polytron in cold 50 mM Tris HCl containing 2 mM MgCl2 (pH to 7.4 at 4 degrees C.) and centrifuged again. The final pellet is re-suspended in 50 mM Tris HCl containing 2 mM MgCl2 (pH to 7.4 at 25 degrees C.) at a concentration of 12 mg/mL. Dilutions of compounds are made in 10% DMSO/50 mM Tris buffer (pH 7.4) (at 10×final concentration, so that the final DMSO concentration is 1%). Incubations are initiated by the addition of membranes (200 microliters) to 96 well V-bottom polypropylene plates containing 25 microliters of drug dilutions and 25 microliters of radioligand (1 nM final concentration ^3H-N-methylhistamine). After a 1 hour incubation, assay samples are rapidly filtered through Whatman GF/B filters and rinsed with ice-cold 50 mM Tris buffer (pH 7.4) using a Skatron cell harvester. Radioactivity is quantified using a BetaPlate scintillation counter.

T1 sequence (Q9QYN8 whole entry): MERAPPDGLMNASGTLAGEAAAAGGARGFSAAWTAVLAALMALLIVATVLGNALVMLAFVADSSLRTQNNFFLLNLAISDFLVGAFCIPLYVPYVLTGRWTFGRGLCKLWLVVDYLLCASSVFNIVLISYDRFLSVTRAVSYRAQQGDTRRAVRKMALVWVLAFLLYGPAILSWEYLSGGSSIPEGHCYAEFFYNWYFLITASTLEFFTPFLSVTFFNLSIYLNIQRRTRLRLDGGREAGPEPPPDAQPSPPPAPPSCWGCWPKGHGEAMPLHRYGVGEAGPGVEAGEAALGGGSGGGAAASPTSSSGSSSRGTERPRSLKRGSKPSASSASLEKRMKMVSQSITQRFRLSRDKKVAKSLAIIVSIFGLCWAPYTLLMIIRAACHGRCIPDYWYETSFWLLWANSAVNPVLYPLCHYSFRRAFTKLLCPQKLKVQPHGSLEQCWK

Structure (SMILES)	Ki [nM]
COc1ccc(CN2CCN3C[C@H](COCCCN4CCCCC4)CC[C@H]3C2)cc1 (relative stereo) [Example 6]	55
c1ccc(CN2CCN3C[C@H](COCCCN4CCCCC4)CC[C@H]3C2)cc1 (stereo in doubt) [Example 2, trans-2-Benzyl-7-(3-piperidin-1-ylpropoxymethyl)-octahydro-pyrido[1,2-a]pyrazine]	125
c1ccc(CCN2CCN3C[C@H](COCCCN4CCCCC4)CC[C@H]3C2)cc1 (stereo in doubt) [Example 3, trans-2-Phenethyl-7-(3-piperidin-1-ylpropoxymethyl)-octahydro-pyrido[1,2-a]pyrazine]	54
c1ccc(CCCN2CCN3C[C@H](COCCCN4CCCCC4)CC[C@H]3C2)cc1 (stereo in doubt) [Example 4, trans-2-(3-Phenylpropyl)-7-(3-piperidin-1-ylpropoxymethyl)-octahydro-pyrido[1,2-a]pyrazine]	37
CC(=O)c1ccc(CN2CCN3C[C@H](COCCCN4CCCCC4)CC[C@H]3C2)cc1 (stereo in doubt) [Example 5, trans-1-{4-[7-(3-Piperidin-1-ylpropoxymethyl)-octahydro-pyrido[1,2-a]pyrazin-2-ylmethyl]-phenyl}-ethanone]	35
COc1cccc(CN2CCN3C[C@H](COCCCN4CCCCC4)CC[C@H]3C2)c1 (stereo in doubt) [Example 7, trans-2-(3-Methoxybenzyl)-7-(3-piperidin-1-ylpropoxymethyl)-octahydro-pyrido[1,2-a]pyrazine]	28
Fc1ccc(CN2CCN3C[C@H](COCCCN4CCCCC4)CC[C@H]3C2)cc1 (stereo in doubt) [Example 8, trans-2-(4-Fluorobenzyl)-7-(3-piperidin-1-ylpropoxymethyl)-octahydro-pyrido[1,2-a]pyrazine]	26
Fc1cccc(CN2CCN3C[C@H](COCCCN4CCCCC4)CC[C@H]3C2)c1 (stereo in doubt) [Example 9, trans-2-(3-Fluorobenzyl)-7-(3-piperidin-1-ylpropoxymethyl)-octahydro-pyrido[1,2-a]pyrazine]	9
Clc1ccc(CN2CCN3C[C@H](COCCCN4CCCCC4)CC[C@H]3C2)cc1 (stereo in doubt) [Example 10, trans-2-(4-Chlorobenzyl)-7-(3-piperidin-1-ylpropoxymethyl)-octahydro-pyrido[1,2-a]pyrazine]	14
Clc1cccc(CN2CCN3C[C@H](COCCCN4CCCCC4)CC[C@H]3C2)c1 (stereo in doubt) [Example 11, trans-2-(3-Chlorobenzyl)-7-(3-piperidin-1-ylpropoxymethyl)-octahydro-pyrido[1,2-a]pyrazine]	33
CC(=O)Nc1ccc(CN2CCN3C[C@H](COCCCN4CCCCC4)CC[C@H]3C2)cc1 (stereo in doubt) [Example 12, trans-N-{4-[7-(3-Piperidin-1-ylpropoxymethyl)-octahydro-pyrido[1,2-a]pyrazin-2-ylmethyl]-phenyl}-acetamide]	70
c1cc(CN2CCN3C[C@H](COCCCN4CCCCC4)CC[C@H]3C2)ccn1 (stereo in doubt) [Example 13, trans-7-(3-Piperidin-1-yl-propoxymethyl)-2-pyridin-4-ylmethyl-octahydro-pyrido[1,2-a]pyrazine]	33
c1ccc(CN2CCN3C[C@H](COCCCN4CCCCC4)CC[C@H]3C2)nc1 (stereo in doubt) [Example 15, trans-7-(3-Piperidin-1-yl-propoxymethyl)-2-pyridin-2-ylmethyl-octahydro-pyrido[1,2-a]pyrazine]	90
CN1CCN2C[C@H](COCCCN3CCCCC3)CC[C@H]2C1 (stereo in doubt) [Example 16, trans-2-Methyl-7-(3-piperidin-1-ylpropoxymethyl)-octahydro-pyrido[1,2-a]pyrazine]	114
CC(=O)c1ccc(CN2CCN3C[C@@H](COCCCN4CCCCC4)CC[C@H]3C2)cc1 (stereo in doubt) [Example 17, cis-1-{4-[7-(3-Piperidin-1-ylpropoxymethyl)-octahydro-pyrido[1,2-a]pyrazin-2-ylmethyl]-phenyl}-ethanone]	60
Clc1ccc(CN2CCN3C[C@@H](COCCCN4CCCCC4)CC[C@H]3C2)cc1 (stereo in doubt) [Example 18, cis-2-(4-Chlorobenzyl)-7-(3-piperidin-1-ylpropoxymethyl)-octahydro-pyrido[1,2-a]pyrazine]	> 69
CS(=O)(=O)c1ccc(CN2CCN3C[C@@H](COCCCN4CCCCC4)CC[C@H]3C2)cc1 (stereo in doubt) [Example 21, cis-2-(4-Methanesulfonylbenzyl)-7-(3-piperidin-1-ylpropoxymethyl)-octahydro-pyrido[1,2-a]pyrazine]	26
C1CCN(CCCOC[C@@H]2CC[C@H]3CNCCN3C2)CC1 (stereo in doubt) [Intermediate 3, trans-7-(3-Piperidin-1-ylpropoxymethyl)-octahydro-pyrido[1,2-a]pyrazine]	155
CS(=O)(=O)c1ccc(CN2CCN3C[C@H](COCCCN4CCCCC4)CC[C@H]3C2)cc1 [Example 1, trans-(7R, 9aS)-2-(4-Methanesulfonylbenzyl)-7-(3-piperidin-1-ylpropoxymethyl)-octa-hydro-pyrido[1,2-a]pyrazine]	42

Source: US20050282811A1, “Diazabicyclic histamine-3 receptor antagonists” (Pfizer Inc, priority 2004, published 2005)
